We go through one compound from patent US5618560A, “Controlled release erodible composition” (BM Research A/S, priority 1988, dated 1997).

The series in a line: clinical. On the set-up: species or system patients (human). The following applies: human, in vivo, iv, 5 mg/kg, Serum half-life.

Method: The in vivo release of theophylline from this composition was tested in six patients, 3 males and 3 females, aged 18-42 years (mean age 30 years), weighing from 63 to 85 kg (mean weight 66 kg), all of whom were diagnosed as having bronchial asthma.
The first dose was given to the patients before breakfast (i.e. in the fasting state) as two units of the composition (340 mg theophylline) together with 100 ml of liquid. […] Following the oral dose, venous blood samples were drawn at 0, 1, 2, 3, 4, 6, 8, 10, 12, 14, 16 and 24 hours. Serum samples were drawn at 0, 15 min., 30 min., 60 min., 90 min., and 2, 3, 5, 7, 9 and 11 hours after the i.v. dose. The serum portion of the blood specimen was immediately frozen at -20° C. and kept frozen until analyzed 2 weeks later. The amount of theophylline in the serum was assayed by HPLC with an accuracy of ±5%.

With `Cn1c(=O)c2[nH]cnc2n(C)c1=O` [theophylline], the half-life is 6 h.
